Patent EP0812857A1, “Irreversible HIV protease inhibitors, compositions containing same and process for the preparation thereof” (LG Chemical Limited, priority 1996, dated 1997)

Legend:
in vitro = settings: human, h9 or sup t1 cells
Procedure: To determine the cytotoxicity of the compounds of the present invention, 0.1µM to 100µM of the novel compounds were added to H9 cell or Sup T1 cell and the mixture was cultured on a rpmi-1640 medium at 37°C. The medium was refreshed every 3 days and the extent of cell proliferation was observed using Hemacytometer according to the trypan blue dye exclusion technique which is well known in the art. CT50(i.e., concentration that causes death of cells by 50%) was determined. As control compounds, azidothymidine(AZT, Burrows-Wellcome Co.) and Ro-31 8959(Hoffmann-La Roche AG) were used. […]

HIV-1 = test: Anti-viral activity: syncytium formation (Sup T1) or reverse transcriptase assay (H9); assay type: cell-based; settings: Human immunodeficiency virus 1; concentration that inhibits the proliferation of HIV by 50%; H9 and Sup T1 cell lines, 200 TCID50 HIV-1; cell line not given; read-out: IC
Procedure: The anti-viral activity of the compounds of the present invention was determined by measuring the concentration of the compounds that inhibits the proliferation of HIV by 50%(IC50) through a survey for syncytium formation or reverse transcriptase assay.
1 x 10^5 cells of each of H9(ATCC HTB 176) and Sup T1 cell lines were added to the wells of a 24-well microtiter plate and various concentrations of the compounds of the present invention were added thereto. 200 TCID50(200-fold of 50% tissue culture infection dose) of HIV-1 inoculum and rpmi-1640 medium(Sigma Chemical Co., U.S.A) were added successively to the wells and the plate was incubated at 37°C. In case of Sup T1, the number of syncytium formed was investigated after 3 to 9 days. IC50 of each compound was determined by measuring the concentration of inhibitor that can reduce the number of syncytium by 50% compared with those formed in the same condition without the inhibitor.
In case of H9, three-quarters(3/4) of the culture medium in volume was refreshed every 3 days; and after 9 days, 6ml of the culture fluid was taken and 2.5ml of 30% polyethyleneglycol(PEG, M.W. 6000-8000) and 0.4M NaCl were added thereto. The resulting solution was allowed to stand at 0°C overnight to precipitate virus particles. The solution was centrifuged at 2000rpm for 45 minutes, the supernatant was discarded therefrom and the precipitate was diluted with 20µl of a reverse transcriptase suspension buffer(50mM tris-HCl, pH 7.5, 1mM dithiothreitol, 20% glycerol, 0.25M KCl and 0.25% Triton X-100). The resulting suspension was stored in an Effendorf tube at -70°C until used. A procedure of freezing said virus suspension for 2 minutes in dry ice and thawing same at 37°C for 2 minutes was repeated three times and the resulting suspension was centrifuged at 4°C. The resulting supernatant was used in carrying out the reverse transcriptase assay.
10µl of the said viral suspension was added to a solution of: 10µl of buffer solution(250mM tris-HCl, pH 7.5, 37.5mM MgCl2, 0.25% triton X-100), 1.2µl of 200mM dithiothreitol, 5µl of 100µM oligo(dT)-poly(A)(Boeringer Manheim, 12-18 oligomer), 1µl(1µCi) of ^3H-TTP(Thymidinetri-phosphate) and 23.6µl of water; and the resulting mixture was placed at 37°C. After 1 hour, the mixture was poured onto a WHATMAN DEB1 filter and the filter was washed three times with 5ml of 2 x SSC buffer solution(17.53g of sodium chloride, 8.82g of sodium citrate, pH 7.0, 1 liter of water) for about 10 minutes each time and twice with 95% methanol for 10 seconds. The filter was put onto aluminium foil and dried with an infrared lamp. The amount of radioactivity was counted using a liquid scintillation counter.

HIV-1 protease = biological target: T1, HIV-1 protease (Human immunodeficiency virus type 1 group M subtype B, UniProt P04585); test: Assay for inhibitory effect on HIV protease (irreversible inhibition kinetics, HPLC readout); assay type: biochemical; settings: second order rate constant; 2.6nM HIV-1 protease, pH 5.5; KINSIM/FITSIM fit; exact values hard to calculate above 10^9
T1 construct: addition of 2.6nM of HIV-1 protease
Procedure: The inhibitory effect on HIV protease of the compounds of the present invention was determined by the following method.
To a buffer solution comprising 50mM sodium acetate, pH 5.5, 1mM dithiothreitol (DTT), 1mM ethylenediaminetetra-acetate (EDTA), 0.75M ammonium sulfate, 0.2M sodium chloride and 0.1% NP40(NONIGET P-40; Sigma Chemical Co., U.S.A.), were added various concentrations of a compound selected from the compound obtained in Examples 1 to 9 to prepare a preincubation solution. Inhibition reaction was started with the addition of 2.6nM of HIV-1 protease to the preincubation solution. Each 10µl of the reaction solution was taken at a given time interval and added to 80µl of assay solution containing 100µM of reaction substrate in the same buffer solution as the above to assay for the residual enzyme activity. In this context, an oligopeptide(KM=20µM) consisting of 11 amino acids, i.e., Ser-Ile-Ala-Glu-(p-NO2)-Phe-Leu-Val-Arg-Ala-Lys-His, was used as a reaction substrate, which oligopeptide was to be cleaved in two by the breakage of amide bond between (P-NO2)-Phe and Leu upon the attack of HIV protease. The reaction rate was determined by subjecting the substrate before the reaction and the product after the reaction to HPLC separation and then measuring the relative amount of the product, using the strong absorbance of (p-NO2)-Phe at 280nm. The amounts of reduction in enzyme activity according to the elasped time were measured and the natural logarithmic values(ln) of the measured amounts were plotted against time to obtain a linear graph and kobs was calculated from the slope of the linear graph.
The inhibition constant was calculated according to the following equation: (1)/(kobs)=(1)/(kina)+(KI)/(kina)(1)/([I]) [formula] wherein: kobs is a rate constant indicating the rate of reduction in enzyme activity according to the elapsed time under the presence of a given concentration of inhibitor, kina is a rate constant indicating the rate of chemical reaction forming covalent bond between an enzyme and an inhibitor in Michaelis-Menten complex, KI is an inhibition constant indicating the dissociation rate of Michaelis-Menten complex into an enzyme and an inhibitor, and [I] means the inhibitor concentration.
The above equation is applicable to an experiment carried out under the condition in which the concentration of inhibitor is fear higher than that of enzyme (Steady State Kinetic). […] The inhibition constants KI and kina and second order rate constant kina/KI were obtained by inputting the value of [E]/([E]+[EI]+[EI']) [formula] into KINSIM/FITSIM program.

Compound	CC50 (in vitro) [µM]	IC50 (HIV-1) [nM]	kinact/KI (HIV-1 protease) [M⁻¹ s⁻¹]
Cc1cn([C@H]2C[C@H](N=[N+]=[N-])[C@@H](CO)O2)c(=O)[nH]c1=O [AZT, azidothymidine, reference compound]	> 10	12	
CC(C)(C)NS(=O)(=O)CC[C@@H]1O[C@@H]1[C@H](Cc1ccccc1)NC(=O)[C@@H](NC(=O)OCc1ccccc1)C(C)(C)S(C)(=O)=O [Ex. 1, N-t-butyl-5S-[N-benzyloxycarbonyl-β-methanesulfonyl-L-valinyl]amino-(4R,3S)-epoxy-6-phenylhexanesulfonamide]	> 10	25	1.67e+07 to 1.67e+08
CC(C)(C)NS(=O)(=O)CC[C@@H]1O[C@@H]1[C@H](Cc1ccccc1)NC(=O)[C@@H](NC(=O)c1ccc2ccccc2n1)C(C)(C)S(C)(=O)=O [Ex. 2, N-t-butyl-5S-[N-(2-quinolinecarbonyl)-β-methanesulfonyl-L-valinyl]amino-(4R,3S)-epoxy-6-phenylhexanesulfonamide]	> 10	30	1.67e+07 to 1.67e+08
CC(C)(C)NS(=O)(=O)CC[C@@H]1O[C@@H]1[C@H](Cc1ccccc1)NC(=O)[C@H](CC(N)=O)NC(=O)c1ccc2ccccc2n1 [Ex. 3]	> 10	10	1.67e+07 to 1.67e+08
CN(C(C)(C)C)S(=O)(=O)CC[C@@H]1O[C@@H]1[C@H](Cc1ccccc1)NC(=O)[C@@H](NC(=O)OCc1ccccc1)C(C)(C)S(C)(=O)=O [Ex. 4, N-t-butyl-N-methyl-5S-[N-benzyloxycarbonyl-β-methanesulfonyl-L-valinyl]amino-(4R,3S)-epoxy-6-phenylhexanesulfonamide]	> 10	1	1.67e+07 to 1.67e+08
CN(C(C)(C)C)S(=O)(=O)CC[C@@H]1O[C@@H]1[C@H](Cc1ccccc1)NC(=O)[C@@H](NC(=O)COc1cccc2cnccc12)C(C)(C)S(C)(=O)=O [Ex. 5, N-t-butyl-N-methyl-5S-(N-(5-isoquinolyloxymethylcarbonyl)-β-methanesulfonyl-L-valinyl]amino-(4R,3S)-epoxy-6-phenylhexanesulfonamide]	> 10	5	1.67e+07 to 1.67e+08
CCN(c1ccccc1)S(=O)(=O)CC[C@@H]1O[C@@H]1[C@H](Cc1ccccc1)NC(=O)[C@@H](NC(=O)c1ccc2ccccc2n1)C(C)(C)S(C)(=O)=O [Ex. 6, N-ethyl-N-phenyl-5S-[N-(2-quinolinecarbonyl)-β-methanesulfonyl-L-valinyl]amino-(4R,3S)-epoxy-6-phenylhexanesulfonamide]	> 10	5	1.67e+07 to 1.67e+08
CCN(c1ccccc1)S(=O)(=O)CC[C@@H]1O[C@@H]1[C@H](Cc1ccccc1)NC(=O)[C@H](CC(N)=O)NC(=O)c1ccc2ccccc2n1 [Ex. 7, N-ethyl-N-phenyl-5S-[N-(2-quinolinecarbonyl)-L-asparaginyl]amino-(4R,3S)-epoxy-6-phenylhexanesulfonaimide]	> 10	20	1.67e+07 to 1.67e+08
CCN(C(C)C)S(=O)(=O)CC[C@@H]1O[C@@H]1[C@H](Cc1ccccc1)NC(=O)[C@@H](NC(=O)c1ccc2ccccc2n1)C(C)(C)S(C)(=O)=O [Ex. 8, N-ethyl-N-isopropyl-5S-[N-(2-quinolinecarbonyl)-β-methanesulfonyl-L-valinyl]amino-(4R,3S)-epoxy-6-phenylhexanesulfonamide]	> 10	10	1.67e+07 to 1.67e+08
CC(C)C(NS(=O)(=O)CC[C@@H]1O[C@@H]1[C@H](Cc1ccccc1)NC(=O)[C@@H](NC(=O)OCc1ccccc1)C(C)(C)S(C)(=O)=O)C(C)C [Ex. 9, N-(2,4-dimethyl-3-pentyl)-5S-[N-(2-benzyloxycarbonyl)-β-methanesulfonyl-L-valinyl]amino-(4R,3S)-epoxy-6-phenylhexanesulfonamide]	> 10	10	1.67e+07 to 1.67e+08
